Results published in patent US12264175B2, “Compositions and methods for capping RNAS” (Verve Therapeutics, Inc., priority 2020, dated 2025).

What was measured:
mouse PCSK9 (mPCSK9) = assay: In vivo base editing in mouse with LNP of sgRNA and capped ABE mRNA (NGS editing efficiency); conditions: LNP with sgRNA targeting mPCSK9 and ABE mRNA; mice; FIG. 7
Experimental: Lipid nanoparticles (LNPs) are generated by microfluidic mixing using the Precision Nanosystems NanoAssemblr system according to the manufacturer's protocol, with some optimization for individual payloads. The resulting LNPs are filtered using 0.2-micron filters and stored at 4° C. or frozen at […]
LNPs used in these studies are prepared as described above in Example 6 (A), comprising chemically synthesized sgRNAs targeting the mouse ANGPTL3 (mANGPTL3) and/or mouse PCSK9 (mPCSK9) genes and SpCas9 or ABE8.8 mRNA in a 1:1 weight ratio, are administered to C57BL/6 mice (n=5) intravenously via the lateral tail vein or retro-orbital sinus in a total volume of 5-10 ml/kg. […]
Paired-end reads are analyzed with the CRISPResso2 pipeline (Clement, K. et al., Nat. Biotech. 2019, 37, 224-226). Briefly, low-quality reads are filtered out, adapter sequences are trimmed from the reads, and the paired-end reads are merged and aligned to the amplicon sequence. The editing percentage is calculated as the number of reads supporting […], over the total number of aligned reads. For ABE, the editing percentage is calculated as the number of reads supporting […], over the total number of aligned reads. […]

T7 RNA polymerase = T7 RNA polymerase (Escherichia phage T7, UniProt P00573); assay: mRNA capping efficiency at adjusted 5′ end initiator-to-NTP molar ratio; type: biochemical; conditions: FIG. 4
T7 RNA polymerase, sequence (P00573 whole entry): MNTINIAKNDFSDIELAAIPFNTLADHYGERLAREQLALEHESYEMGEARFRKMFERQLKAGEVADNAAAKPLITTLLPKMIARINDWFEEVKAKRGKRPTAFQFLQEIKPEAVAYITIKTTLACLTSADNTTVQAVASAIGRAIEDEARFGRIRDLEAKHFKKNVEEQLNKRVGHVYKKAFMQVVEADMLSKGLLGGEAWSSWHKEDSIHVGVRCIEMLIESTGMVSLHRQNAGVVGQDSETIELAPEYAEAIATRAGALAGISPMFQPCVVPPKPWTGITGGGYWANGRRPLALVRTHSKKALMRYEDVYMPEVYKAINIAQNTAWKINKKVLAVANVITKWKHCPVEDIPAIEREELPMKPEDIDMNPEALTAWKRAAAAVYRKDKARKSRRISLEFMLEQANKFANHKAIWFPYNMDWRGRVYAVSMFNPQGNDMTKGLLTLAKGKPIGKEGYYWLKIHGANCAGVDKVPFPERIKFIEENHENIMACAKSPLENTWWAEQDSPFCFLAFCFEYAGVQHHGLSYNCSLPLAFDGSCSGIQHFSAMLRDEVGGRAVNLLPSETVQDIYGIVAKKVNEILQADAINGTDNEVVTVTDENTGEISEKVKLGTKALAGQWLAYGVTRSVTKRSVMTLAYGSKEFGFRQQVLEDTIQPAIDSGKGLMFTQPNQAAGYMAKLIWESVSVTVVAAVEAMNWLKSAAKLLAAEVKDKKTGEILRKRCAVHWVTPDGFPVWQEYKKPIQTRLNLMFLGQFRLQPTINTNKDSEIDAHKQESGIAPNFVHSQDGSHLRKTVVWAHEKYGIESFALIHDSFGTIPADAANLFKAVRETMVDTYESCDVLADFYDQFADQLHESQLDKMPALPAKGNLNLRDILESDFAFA
Source text: The amount of capped mRNA produced in an IVT reaction is directly proportional to the ratio of cap to NTPs in the reaction mixture (Stepinski, J. et al., RNA. 2006, 7, 1486-1495). The 5′ end initiator-to-NTP ratio in an IVT reaction impacts the amount of mRNA that becomes capped primarily because cap can compete with NTPs for insertion at the 5′ end of mRNA. A typical initiator-to-NTP ratio for a dinucleotide cap structure is 4:1 and a typical molar initiator-to-NTP ratio for a trinucleotide cap structure is 1:1; where NTP represents either GTP, ATP, CTP, UTP, or modified NTPs such as N1-methyl pseudouridine. At both a 4:1 ratio for a dinucleotide cap and 1:1 ratio for a trinucleotide cap, the resultant mRNA will have a mixture of transcripts of which at least 80% are capped at the 5′ end and up to 20% are uncapped, this is also described as a capping efficiency of 80%. Capping efficiency is the measured amount of capped mRNA divided by the total amount of capped mRNA plus uncapped mRNA. Therefore, trinucleotide caps can be considered more efficient capping compounds than dinucleotide caps since less input cap is required to produce a final mRNA product that contains a similar amount of capped 5′ ends. The ability of trinucleotide caps to produce a high (>90%) capping efficiency at a lower initiator-to-NTP ratio than dinucleotide caps, in some instances, can be attributed to the increased affinity of a trinucleotide cap for the DNA template. In some cases, the optimal cap-to-NTP ratio may vary with the composition of the cap structure, wherein modification of cap structures may affect capping efficiency. […]
The amount of capped mRNA relative to the total amount of mRNA that is present, i.e. capping efficiency, can be measured by numerous methods well known in the art. […]

COC1C(OP([O-])(=S)OCC2OC(n3cnc4c(=O)[nH]c(N)nc43)C(O)C2O)C(COP(=O)(O)OP(=O)(O)OP(=O)(O)OCC2OC(n3c[n+](C)c4c(=O)[nH]c(N)nc43)C(O)C2O)OC1n1cnc2c(N)ncnc21 (stereo not drawn) [1007a, m^7G(ppp)Am(ps)G]
hepatocyte editing levels as compared to mRNA with 5′ end region motif 1002a (mouse PCSK9 (mPCSK9)): similar | capping efficiency (T7 RNA polymerase; initiator-to-NTP ratio ranging from 1:1 down to 1:2.5): > 90% | capping efficiency compared to mRNA capped with 1002a (T7 RNA polymerase; similar production conditions): similar
